For series [1], the target named is T1, human serum albumin (HSA) (Homo sapiens, UniProt P02768).
The nature of series [2]: NP TLC on non-impregnated control plates. Format: physicochemical. The note with it: for CNP (Rf, control NP plate): Table S3, non-impregnated NP plate, acetonitrile/acetate buffer pH 7.4/methanol 60:20:20.
Series [3] deals with T2, bovine serum albumin (BSA) (Bos taurus, UniProt P02769).
T2 construct: purchased Sigma Aldrich
Kind of series: RP TLC on plates impregnated with bovine serum albumin. Format: binding. The note with it: Table S4, RP plate impregnated with 2 mg/mL BSA; pH 7.4 mobile phase.
Excerpt: Chromatographic descriptors were obtained in experiments, thin layer chromatography in normal (NP TLC) and reversed mode (RP TLC). The stationary phase was modified with bovine serum albumin (BSA). TLC was the source of retention factor (Rf) values, denoted in statistical models as NP and RP.
For TLC chromatography, glass plates 20 × 20 cm from Merck, covered with silica gel with the addition of a fluorescent indicator, were used. Normal phase (NP) plates were used with standard Merck TLC Silica gel 60 F254 plates, while in reverse phase (RP) silanized plates RP-2: Merck TLC Silica gel 60 RP-2 F254 were used.
The stationary phase of the plates, both NP and RP, was modified with an aqueous solution of bovine serum albumin purchased from Sigma Aldrich (bovine serum albumin, lyophilized powder).
The impregnation of the plates was carried out with a 2 mg/mL solution applied to the surface using a Desaga SG 1 hand sprayer; the plates were then air dried. […] Normal and reversed phase thin layer chromatography (NP TLC and RP TLC respectively) was performed using silica-gel-coated glass plates. Half of them were covered with 2 mg/mL bovine serum albumin solution and half remained pure.
The mobility of the compounds was also determined on the plates with no protein as a modifier. […] The acetate buffer (20 mM) was prepared by dissolving 1.54 g of ammonium acetate in 1 L of distilled water. The pH was then adjusted with a concentrated ammonia solution using a pH meter. The plates were developed in standard, vertical chromatographic chambers, each time using 100 mL of the mobile phase, after the chamber was previously saturated with solvent vapors for approximately 1 h.
The unfolded-protein-impregnated plates and the control plates were scanned with a Desaga CD 60 densitometer. The values of the delay factor (Rf) were collected, i.e., the ratio of the distance traveled by the substance to be analyzed to the distance traveled through the front of the mobile phase. […] The experiment was repeated (for both BSA-coated and control plates) and the Rf values pooled are the mean of both series of experiments.

Series [4] addresses T2, bovine serum albumin (BSA). Kind of series: NP TLC on plates impregnated with bovine serum albumin. The note with it: for NP (Rf, BSA-impregnated NP plate): Table S3, NP plate impregnated with 2 mg/mL BSA, pH 7.4 mobile phase. Format: binding.
Series [5] can be described thus: HPLC on immobilized artificial membrane column (HPLCIAM). Format: physicochemical. The conditions noted are these: for log k IAM: Table S5, IAM column, pH 7.4; for k IAM: Table S5, retention factor, IAM column, phosphate buffer pH 7.4/acetonitrile 80:20; for kIAM / log kIAM: Table S9, external group.
Series [6] in a line: RP TLC on non-impregnated control plates. The note with it: Table S4, non-impregnated RP plate; acetonitrile/acetate buffer pH 7.4/methanol 60:20:20. Format: physicochemical.
For series [7] the following is noted: Table S1, coded 1/0; ref DrugBank [7]; cited from earlier work.
A further series concerns plasma protein. The conditions noted are these: ref DrugBank [7], cited from earlier work.
Series [8] addresses T1, human serum albumin (HSA). As to the kind of experiment: in vitro. The note with it: immobilized hsa column, pH 7.4.
Setting [9] is: Table S5, retention factor, HSA column, pH 7.4, 25 degrees Celsius.
The mark [10] stands for this setting: Table S1, plasma protein binding given as fraction.
Where [11] appears, read: Table S6, external group (n = 38), given as fraction.
The mark [12] stands for this setting: human, immobilized hsa column, pH 7.4.

Like-named read-outs stand apart in the source and are kept apart here.

T1 sequence (P02768 25-609): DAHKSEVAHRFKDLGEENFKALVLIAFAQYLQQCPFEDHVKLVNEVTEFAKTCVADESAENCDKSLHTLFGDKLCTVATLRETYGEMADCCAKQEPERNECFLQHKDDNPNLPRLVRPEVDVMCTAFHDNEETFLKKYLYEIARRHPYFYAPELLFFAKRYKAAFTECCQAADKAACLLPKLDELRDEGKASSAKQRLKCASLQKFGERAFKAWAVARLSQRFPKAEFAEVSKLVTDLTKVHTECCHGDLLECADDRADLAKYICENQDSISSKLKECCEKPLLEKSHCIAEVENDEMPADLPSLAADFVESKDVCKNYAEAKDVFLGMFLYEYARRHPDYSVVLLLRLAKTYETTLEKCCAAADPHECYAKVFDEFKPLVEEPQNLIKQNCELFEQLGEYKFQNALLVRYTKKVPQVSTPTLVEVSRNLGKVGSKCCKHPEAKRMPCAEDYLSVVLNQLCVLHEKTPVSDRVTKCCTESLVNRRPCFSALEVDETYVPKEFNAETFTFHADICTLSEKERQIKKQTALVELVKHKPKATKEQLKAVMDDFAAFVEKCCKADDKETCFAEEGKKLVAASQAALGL
T2 sequence (P02769 25-607): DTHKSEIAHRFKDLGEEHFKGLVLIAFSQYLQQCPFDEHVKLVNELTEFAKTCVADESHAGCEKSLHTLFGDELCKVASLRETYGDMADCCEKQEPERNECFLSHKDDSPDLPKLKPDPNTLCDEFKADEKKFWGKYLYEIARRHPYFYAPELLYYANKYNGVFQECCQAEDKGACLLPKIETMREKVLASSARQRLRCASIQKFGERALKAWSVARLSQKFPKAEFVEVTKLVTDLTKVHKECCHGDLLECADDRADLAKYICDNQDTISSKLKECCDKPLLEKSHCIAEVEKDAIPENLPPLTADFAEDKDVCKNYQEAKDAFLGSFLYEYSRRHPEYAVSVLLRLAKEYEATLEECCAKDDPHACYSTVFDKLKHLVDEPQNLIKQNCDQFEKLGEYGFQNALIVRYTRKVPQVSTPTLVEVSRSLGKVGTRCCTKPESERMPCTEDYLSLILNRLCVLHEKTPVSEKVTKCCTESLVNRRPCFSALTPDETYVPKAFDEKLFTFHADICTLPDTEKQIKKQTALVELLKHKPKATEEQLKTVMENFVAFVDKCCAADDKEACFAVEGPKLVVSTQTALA

With `CC(C)NCC(O)COc1ccc(COCCOC(C)C)cc1` (stereo not drawn) [bisoprolol], the “k HSA” value in [1] (setting [9]) came out at 1.07. Besides, in [2], the “CNP (Rf, control NP plate)” value is 0.67. Besides, in series [3], the “RP (Rf, BSA-impregnated RP plate)” value came to 0.56. The “NP (Rf, BSA-impregnated NP plate)” value in [4] came out at 0.66. In addition, in series [5], the “log k IAM” value is 0.83 and the “k IAM” value is recorded as 6.74. Further, in [6], the “CRP (Rf, control RP plate)” value stood at 0.57. Further, the “CNS+/-” value in series [7] was 0. Besides, in the series with plasma protein (setting [10]), the PB was 0.3.
For the compound `CN1CCN(C2=Nc3cc(Cl)ccc3Nc3ccccc32)CC1` [clozapine], in series [1] (setting [9]), the “k HSA” value turned out to be 6.84. Moreover, the chromatographic logD (commonly a lipophilicity value derived from retention on a column) in series [8] was 0.84. The “CNP (Rf, control NP plate)” value in series [2] is listed as 0.45. In series [4], the “NP (Rf, BSA-impregnated NP plate)” value stood at 0.46. Moreover, in [5], the “log k IAM” value came to 1.71 and the “k IAM” value was 50.94.
`CNCC[C@H](Oc1cccc2ccccc12)c1cccs1` [duloxetine] returned a kHSA in [1] of 8.16. In [8], the chromatographic logD turned out to be 0.91. In series [5], the kIAM was 2.84 and the “log kIAM” value is on record as 0.45. Further, in the series on plasma protein (setting [11]), the PB is 0.90.
`NCC1(CC(=O)O)CCCCC1` [gabapentin] yielded a kHSA in [1] of 0.15. For the same compound, the chromatographic logD in series [8] is -0.84. In [5], the kIAM was 1.70 and the “log kIAM” value is 0.23. Further, in the series on plasma protein (setting [11]), the PB is 0.03.
Take `CC(=O)OCC(=O)[C@@]1(O)CC[C@H]2[C@@H]3CCC4=CC(=O)CC[C@]4(C)[C@H]3[C@@H](O)C[C@@]21C` [hydrocortisone acetate]: the “k HSA” value in series [1] (setting [9]) is 0.66. Moreover, the chromatographic logD in series [8] is -0.18. The “CNP (Rf, control NP plate)” value in [2] stood at 0.96. For the same compound, the “NP (Rf, BSA-impregnated NP plate)” value in [4] turned out to be 0.96. Besides, in series [5], the “log k IAM” value amounted to 0.45 and the “k IAM” value worked out at 2.82. Besides, the PB with plasma protein (setting [10]) is reported as 0.95.
`Cc1cc2c(s1)Nc1ccccc1N=C2N1CCN(C)CC1` [olanzapine]: the “k HSA” value in series [1] (pH 7.4) is 4.83. The chromatographic logD in [8] came to 0.68. Further, in [5], the “log k IAM” value amounted to 1.31 and the “k IAM” value is given as 20.31.
Take `COc1ccnc(C[S+]([O-])c2nc3ccc(OC(F)F)cc3[nH]2)c1OC` (stereo not drawn) [pantoprazole]: the “k HSA” value in [1] (setting [9]) is 2.09. The “log k HSA” value in [1] (setting [12]) is recorded as 0.32. Besides, the “CNP (Rf, control NP plate)” value in series [2] worked out at 0.93. The “RP (Rf, BSA-impregnated RP plate)” value in [3] came to 0.83. For the same compound, the “NP (Rf, BSA-impregnated NP plate)” value in series [4] came to 0.92. In addition, in [5], the “log k IAM” value is recorded as 0.34 and the “k IAM” value is listed as 2.19. Besides, in series [6], the “CRP (Rf, control RP plate)” value is on record as 0.85. In series [7], the “CNS+/-” value is listed as 0. In the series on plasma protein (setting [10]), the PB is 0.98.
In the case of `CCC[C@H](N[C@@H](C)C(=O)N1[C@H](C(=O)O)C[C@@H]2CCCC[C@@H]21)C(=O)OCC` [perindopril], in [1] (setting [9]), the “k HSA” value came to 0.49. Also, in series [1] (setting [12]), the “log k HSA” value is on record as -0.31. In addition, in series [2], the “CNP (Rf, control NP plate)” value is 0.47. Moreover, the “RP (Rf, BSA-impregnated RP plate)” value in [3] came to 0.58. In [4], the “NP (Rf, BSA-impregnated NP plate)” value turned out to be 0.46. In [5], the “log k IAM” value is given as -0.76 and the “k IAM” value was determined as 0.18. In [6], the “CRP (Rf, control RP plate)” value is listed as 0.57. For the same compound, the “CNS+/-” value in series [7] was 0. Besides, the PB with plasma protein (setting [10]) was 0.15.
As to `CC(C)NCC(O)COc1cccc2[nH]ccc12` (stereo not drawn) [pindolol], in series [1] (setting [9]), the “k HSA” value was found to be 1.65. Besides, the chromatographic logD in series [8] was 0.22. In addition, the “CNP (Rf, control NP plate)” value in series [2] came out at 0.53. The “NP (Rf, BSA-impregnated NP plate)” value in series [4] is 0.52. In [5], the “log k IAM” value worked out at 0.78 and the “k IAM” value came to 6.09. For the same compound, the PB in the series with plasma protein (setting [10]) is listed as 0.4.
With `CC(C)C[C@H](CN)CC(=O)O` [pregabalin], in series [1], the kHSA amounted to 0.14. This compound returned a chromatographic logD in [8] of -0.87. For the same compound, in series [5], the kIAM was found to be 1.65 and the “log kIAM” value is given as 0.22. Further, the PB in the series with plasma protein (setting [11]) is 0.00.
As to `CC(CN1c2ccccc2Sc2ccccc21)N(C)C` (stereo not drawn) [promethazine], in series [1] (Table S5, HSA, pH 7.4), the “log k HSA” value came to 0.73. Moreover, the “k HSA” value in series [1] (setting [9]) was 5.35. In series [2], the “CNP (Rf, control NP plate)” value is on record as 0.43. Moreover, the “RP (Rf, BSA-impregnated RP plate)” value in series [3] is 0.47. In series [4], the “NP (Rf, BSA-impregnated NP plate)” value is reported as 0.42. Besides, in [5], the “log k IAM” value is given as 1.17 and the “k IAM” value amounted to 14.96. Besides, the “CRP (Rf, control RP plate)” value in series [6] came to 0.49. In [7], the “CNS+/-” value is 1. For the same compound, in the series on plasma protein (setting [10]), the PB is given as 0.93.
Take `OCCOCCN1CCN(C2=Nc3ccccc3Sc3ccccc32)CC1` [quetiapine]: the “k HSA” value in series [1] (setting [9]) is 2.48. In addition, the “log k HSA” value in series [1] (setting [12]) was found to be 0.39. Also, the “CNP (Rf, control NP plate)” value in series [2] was determined as 0.68. Moreover, the “RP (Rf, BSA-impregnated RP plate)” value in series [3] was 0.69. Also, in series [4], the “NP (Rf, BSA-impregnated NP plate)” value was 0.68. In addition, in series [5], the “log k IAM” value is recorded as 1.23 and the “k IAM” value came to 17.02. Further, the “CRP (Rf, control RP plate)” value in [6] stood at 0.73. Moreover, the “CNS+/-” value in series [7] is listed as 1. Besides, the PB in the series with plasma protein (setting [10]) is 0.83.
In the case of `Cc1nc2n(c(=O)c1CCN1CCC(c3noc4cc(F)ccc34)CC1)CCCC2` [risperidone], the “k HSA” value in series [1] (pH 7.4) is listed as 2.11. This compound also yielded a chromatographic logD in series [8] of 0.32. Also, in [5], the “log k IAM” value is listed as 0.68 and the “k IAM” value came to 4.83.
`CCCc1nc2c(C)cc(-c3nc4ccccc4n3C)cc2n1Cc1ccc(-c2ccccc2C(=O)O)cc1` [telmisartan]: in series [2], the “CNP (Rf, control NP plate)” value is reported as 0.90. In addition, the “RP (Rf, BSA-impregnated RP plate)” value in series [3] worked out at 0.85. Also, the “NP (Rf, BSA-impregnated NP plate)” value in [4] worked out at 0.90. Besides, in series [5], the “log k IAM” value was 0.67 and the “k IAM” value is recorded as 4.68. The “CRP (Rf, control RP plate)” value in series [6] is on record as 0.87. In [7], the “CNS+/-” value is listed as 1. Besides, the PB in the series with plasma protein (setting [10]) is 0.995.
As to `CCS(=O)(=O)CCn1c([N+](=O)[O-])cnc1C` [tinidazole], in [1] (Table S9, external group), the kHSA amounted to 0.12. The compound also showed a chromatographic logD in [8] of -0.92. The “CNP (Rf value from the non-impregnated NP plate, control)” value in series [2] (Table S8, external group) was determined as 0.89. Besides, the “NP (Rf value from the NP plate impregnated with 2 mg/mL BSA solution)” value in [4] (Table S8, external group) turned out to be 0.88. Besides, in series [5], the kIAM turned out to be 2.00 and the “log kIAM” value is reported as 0.30. Further, the PB with plasma protein (setting [11]) is 0.12.
Take `Cc1ccc(O)c([C@H](CCN(C(C)C)C(C)C)c2ccccc2)c1` [tolterodine]: the “k HSA” value in series [1] (pH 7.4) stood at 2.9. This compound also registered a chromatographic logD in series [8] of 0.46. In series [5], the “log k IAM” value is -0.68 and the “k IAM” value worked out at 0.21.
On to `CCN(Cc1ccncc1)C(=O)C(CO)c1ccccc1` (stereo not drawn) [tropicamid], for which the “log k HSA” value in series [1] (Table S5, HSA, pH 7.4) is listed as -0.82. The “k HSA” value in series [1] (setting [9]) worked out at 0.15. Moreover, the “CNP (Rf, control NP plate)” value in series [2] is recorded as 0.85. In addition, the “RP (Rf, BSA-impregnated RP plate)” value in series [3] worked out at 0.83. In addition, in [4], the “NP (Rf, BSA-impregnated NP plate)” value was determined as 0.86. Moreover, in [5], the “log k IAM” value is on record as 0.03 and the “k IAM” value is reported as 1.06. Further, the “CRP (Rf, control RP plate)” value in series [6] is listed as 0.83. In series [7], the “CNS+/-” value is 1. For the same compound, the PB in the series on plasma protein (setting [10]) is reported as 0.45.
For `COc1ccc(C(CN(C)C)C2(O)CCCCC2)cc1` (stereo not drawn) [venlafaxine], the “k HSA” value in series [1] (pH 7.4) stood at 1.05. The chromatographic logD in series [8] came out at 0.02. In [5], the “log k IAM” value stood at 0.92 and the “k IAM” value was determined as 8.25. Besides, the PB with plasma protein (setting [10]) was 0.27.

The values are drawn from PMC9182007, “Statistical Methods in the Study of Protein Binding and Its Relationship to Drug Bioavailability in Breast Milk” (Molecules, 2022).
